For series [1] the following is noted: instrument: TW, calibrated with phosphatidylcholines (ESI+) and phosphatidylethanolamines (ESI-), doubly charged cardiolipins calibrated with poly-DL-….
For series [2] the following is noted: instrument: DT, single field.
For series [3] the following is noted: instrument: DT, single field, calibrated with Agilent tune mix (Agilent).
For series [4] the following is noted: instrument: DT, stepped-field.

Where “and” joins values, the source holds several entries; their conditions need not be identical. Equal values may be shown once.

As to `CCCCCC/C=C\CCCCCCCC(=O)OC[C@H](COP(=O)(O)OCCNC(=O)CCCCCCCCCCCCCCC)OC(=O)CCCCCCCCCCCCC` [AcylPE(46:1)], the “collision cross section (N2)” value in series [1] ([M-H]-) is 310.12 Å². `CCCCCC/C=C\CCCCCCCC(=O)OC[C@H](COP(=O)(O)OCCNC(=O)CCCCCCCCCCCCCCC)OC(=O)CCCCCCCCCCCCCC` [AcylPE(47:1)]: the “collision cross section (N2)” value in series [1] ([M+Na]+) turned out to be 321.4 Å²; in series [1] ([M-H]-), 313.42 Å². Turning to `CCCCCC/C=C\CCCCCCCC(=O)OC[C@H](COP(=O)(O)OCCNC(=O)CCCCCCCCCCCCCCC)OC(=O)CCCCCCCC1CC1CCCCCCCC` (some centres not stated) [AcylPE(51:2)], the “collision cross section (N2)” value in series [1] ([M-H]-) is 325.65 Å². Same read-out and setting: then `CCCCCC/C=C\CCCCCCCC(=O)OC[C@H](COP(=O)(O)OCCNC(=O)CCCCCCCCCCCCCCC)OC(=O)CCCCCCC/C=C\CCCCCCCCCC` [AcylPE(52:2)], with 328.83 Å². Still for that read-out and setting: for `CCCCCC/C=C\CCCCCCCC(=O)OC[C@H](COP(=O)(O)OC[C@@H](O)COC(=O)CCCCCCCCCCCCCCC)OC(=O)CCCCCCCCCCCCC` [AcylPG(46:1)] the value was 310.71 Å². On the same count and under the same terms, for `CCCC/C=C\CCCCCCCC(=O)O[C@H](COC(=O)CCCCCCC/C=C\CCCCCC)COP(=O)(O)OC[C@@H](O)COC(=O)CCCCCCCCCCCCCCC` [AcylPG(46:2)] the value was 312.53 Å²; for `CCCCCC/C=C\CCCCCCCC(=O)OC[C@H](COP(=O)(O)OC[C@@H](O)COC(=O)CCCCCCCCCCCCCCC)OC(=O)CCCCCCC/C=C\CCCCCC` [AcylPG(48:2)], 315.28 Å². With `CCCCCC/C=C\CCCCCCCC(=O)OC[C@H](COP(=O)(O)OC[C@@H](O)COC(=O)CCCCCCCCCCCCCCC)OC(=O)CCCCCCCC1CC1CCCCCC` (some centres not stated) [AcylPG(49:2)], the “collision cross section (N2)” value in series [1] ([M-H]-) is listed as 318.87 Å². `CCCCCC/C=C\CCCCCCCC(=O)OC[C@H](CO)OC(=O)CCCCCCCCCCCCCCCCC` [DG(34:1)]: the “collision cross section (N2)” value is 260.44 Å² and 262.5 Å² in series [2] ([M+NH4]+); 261.1 Å² in series [3] ([M+NH4]+). In the case of `CCCCC/C=C\CCCCCCCC(=O)O[C@H](COC(=O)CCCCCCC/C=C\CCCCCC)COP(=O)([O-])OCC[N+](C)(C)C` [PC(31:2)], the figures for the “collision cross section (N2)” value in series [2] ([M+H]+) and in series [4] ([M+K]+) were 272.28 Å² and 283.6 Å², respectively.

Consider `CCCCC/C=C\C/C=C\CCCCCCCCCC(=O)O[C@H](COC(=O)CCCCCCCCCCCC)COP(=O)([O-])OCC[N+](C)(C)C` [PC(33:2)], for which the “collision cross section (N2)” value was determined as 279.23 Å² in series [2] ([M+H]+), 279.8 Å² in series [3] ([M+H]+) and 291.5 Å² in series [4] ([M+K]+).

Consider `CCCCCCCCCCCCC=CC[C@@H](O)[C@H](COP(=O)([O-])OCC[N+](C)(C)C)NC(=O)CCCCCCCCCCCCCCCCCCCCC` [SM(40:1)], for which the “collision cross section (N2)” value in series [2] ([M+H]+) stood at 299.29 Å²; in series [3] ([M+HCOO]-), 297.5 Å²; in series [3] ([M+H]+), 300.7 Å²; in series [3] ([M+Na]+), 300.5 Å²; in series [4] ([M+Na]+), 303.9 Å². As for `CCCCCCCCCCCCC=CC[C@@H](O)[C@H](COP(=O)([O-])OCC[N+](C)(C)C)NC(=O)CCCCCCCCCCCCCCCCCCCCCCCC` [SM(43:1)], the “collision cross section (N2)” value is listed as 308.58 Å² in series [2] ([M+H]+) and 312.5 Å² in series [4] ([M+Na]+). With `CCCCCCCCCCCCCCCC(=O)OC[C@@H](COC(=O)CCCCCCCCCCC)OC(=O)CCCCCCCCCCC` [TG(40:0)], the “collision cross section (N2)” value in series [2] ([M+Na]+) is 282.67 Å² and 283.77 Å²; in series [3] ([M+NH4]+), 285 Å². For `CCCCC/C=C\C/C=C\CCCCCCCCCC(=O)OC[C@@H](COC(=O)CCCCCCCCCCC)OC(=O)CCCCCCCCCCC` [TG(44:2)], the “collision cross section (N2)” value in series [2] ([M+NH4]+) is 294.01 Å² and 295.78 Å² and 296.41 Å²; in series [2] ([M+Na]+) it was 292.91 Å² and 295.34 Å²; in series [3] ([M+NH4]+) it was 292.9 Å². Turning to `CCCCCCCC/C=C\CCCCCCCC(=O)OC[C@@H](COC(=O)CCCCCCCCCCC)OC(=O)CCCCCCC/C=C\CCCCCCCC` [TG(48:2)], the “collision cross section (N2)” value in series [2] ([M+NH4]+) was 307.53 Å² and 309.7 Å² and 313.52 Å²; in series [2] ([M+Na]+), 306.66 Å² and 308.69 Å²; in series [3] ([M+NH4]+) it was 308.3 Å².

As for `CCCCCCCCC/C=C\CCCCCCCC(=O)OC[C@@H](COC(=O)CCCCCCCCCCC)OC(=O)CCCCCCC/C=C\CCCCCCCCC` [TG(50:2)], the “collision cross section (N2)” value in series [2] ([M+Na]+) is 313.04 Å² and 315.16 Å²; in series [3] ([M+NH4]+), 315.8 Å². Take `CCCCC/C=C\C/C=C\C/C=C\CCCCCCCCC(=O)OC[C@@H](COC(=O)CCCCCCCCCCCCC)OC(=O)CCCCCCCCCCCCC` [TG(50:3)]: the “collision cross section (N2)” value in series [2] ([M+NH4]+) was 311.73 Å² and 314.12 Å²; in series [2] ([M+Na]+), 310.81 Å² and 313.16 Å²; in series [3] ([M+NH4]+), 313 Å². Turning to `CCCCCCCCC/C=C\CCCCCCCC(=O)OC[C@@H](COC(=O)CCCCCCCCCCCC)OC(=O)CCCCCCC/C=C\CCCCCCCCC` [TG(51:2)], the “collision cross section (N2)” value was 315.77 Å² and 317.68 Å² in series [2] ([M+Na]+); 317.2 Å² in series [3] ([M+NH4]+).

In the case of `CCCCC/C=C\CCCCCCCC(=O)OC[C@H](COC(=O)CCCCCCC/C=C\CCCCCCCC)OC(=O)CCCCCCC/C=C\CCCCCCCC` [TG(51:3)], the “collision cross section (N2)” value was 314.4 Å² and 316.33 Å² and 320.05 Å² in series [2] ([M+NH4]+); 313.29 Å² and 315.37 Å² in series [2] ([M+Na]+); 314.6 Å² in series [3] ([M+NH4]+). For the molecule `CCCC/C=C\C/C=C\CCCCCCCC(=O)O[C@@H](COC(=O)CCCCCCC/C=C\C/C=C\CCCCC)COC(=O)CCCCCCCCCCCCCCC` [TG(51:4)], the “collision cross section (N2)” value in series [2] ([M+NH4]+) is 312.43 Å² and 314.2 Å² and 317.35 Å²; in series [2] ([M+Na]+), 313.17 Å²; in series [3] ([M+NH4]+) it was 312.1 Å². For `CCCCCCC/C=C\CCCCCCCC(=O)O[C@H](COC(=O)CCCCCCCCCCCCCCCC)COC(=O)CCCCCCCCCCCCCCCCC` [TG(52:1)], the “collision cross section (N2)” value in series [2] ([M+Na]+) was 320.83 Å² and 322.81 Å²; in series [3] ([M+NH4]+) it was 323.6 Å². Turning to `CCCCC/C=C\C/C=C\C/C=C\CCCCC(=O)O[C@H](COC(=O)CCCCCCCCCCC)COC(=O)CCCCCCCCCCC/C=C\C/C=C\CCCCC` [TG(52:5)], the “collision cross section (N2)” value in series [2] ([M+Na]+) was 312.33 Å² and 314.31 Å²; in series [3] ([M+NH4]+), 314.7 Å². `CCCCC/C=C\C/C=C\CCCCCCCCCC(=O)O[C@H](COC(=O)CCCCCCCCCCCC)COC(=O)CCCCCCCCCCCCCCCCCCCCC` [TG(55:2)]: the “collision cross section (N2)” value in series [2] ([M+NH4]+) is 332.67 Å² and 335.01 Å²; in series [3] ([M+NH4]+), 329.2 Å². For the molecule `CCCCCCC/C=C\CCCCCCCC(=O)OC[C@H](COC(=O)CCCCCCCCC/C=C\CCCCCCCCCC)OC(=O)CCCCCCC/C=C\CCCCCCC` [TG(56:3)], the “collision cross section (N2)” value in series [2] ([M+Na]+) stood at 331.24 Å²; in series [3] ([M+NH4]+), 332.6 Å². On to `CCCCC/C=C\C/C=C\CCCCCCCCCCCC(=O)OC[C@@H](COC(=O)CCCCCCCCCCC)OC(=O)CCCCCCCCCCC/C=C\C/C=C\CCCCC` [TG(56:4)], for which the “collision cross section (N2)” value is 327.84 Å² and 330.13 Å² and 333.95 Å² in series [2] ([M+NH4]+); 329.41 Å² in series [2] ([M+Na]+); 330.8 Å² in series [3] ([M+NH4]+). Regarding `CCCCC/C=C\C/C=C\CCCCCCCCCC(=O)OC[C@@H](COC(=O)CCCCCCC/C=C\C/C=C\CCCCC)OC(=O)CCCCCCC/C=C\CCCCCCCCC` [TG(57:5)], the “collision cross section (N2)” value in series [2] ([M+NH4]+) was determined as 334.96 Å². Consider `CC/C=C\C/C=C\C/C=C\C/C=C\C/C=C\CCCC(=O)O[C@H](COC(=O)CCCCCCCCCCCCCCC)COC(=O)CCCCCCCCCCCCCCCCCCCCC` [TG(58:5)], for which the “collision cross section (N2)” value in series [2] ([M+NH4]+) was found to be 334.35 Å²; in series [3] ([M+NH4]+), 334.6 Å². Turning to `CC/C=C\C/C=C\C/C=C\C/C=C\C/C=C\CCCCCC(=O)OC[C@@H](COC(=O)CCCCCCCCCCCCCCCCC)OC(=O)CCCCCCC/C=C\C/C=C\CCCCC` [TG(58:7)], the “collision cross section (N2)” value in series [2] ([M+NH4]+) is 331.34 Å² and 332.87 Å²; in series [2] ([M+Na]+), 331.1 Å². For the molecule `CC/C=C\C/C=C\C/C=C\CCCCCCCC(=O)O[C@H](COC(=O)CCCCCCC/C=C\C/C=C\CCCCC)COC(=O)CCCCCCCC/C=C\C/C=C\C/C=C\CCCCC` [TG(58:8)], the “collision cross section (N2)” value in series [2] ([M+NH4]+) is 330.76 Å² and 329.67 Å².

Turning to `CCCCCCCCC/C=C\CCCCCCCC(=O)OC[C@H](COC(=O)CCCCCCCCCCCCCCCCCCC)OC(=O)CCCCCCCCCCCCCCCCCCC` [TG(59:1)], the “collision cross section (N2)” value in series [2] ([M+NH4]+) was determined as 347.61 Å².

`CCCC/C=C\C/C=C\CCCCCCCC(=O)OC[C@H](COC(=O)CCCCCCCCCCCCCCCCCCCCC)OC(=O)CCCCCCCCCCCCCCCCCCC` [TG(59:2)]: the “collision cross section (N2)” value in series [2] ([M+NH4]+) is 343.68 Å² and 345.92 Å².

On to `CCCC/C=C\C/C=C\CCCCCCCC(=O)OC[C@H](COC(=O)CCCCCCCCCCCCCCCCCCCCC)OC(=O)CCCCCCCCC/C=C\CCCCCCCC` [TG(59:3)], for which the “collision cross section (N2)” value was 342.22 Å² and 344.48 Å² in series [2] ([M+NH4]+); 337.6 Å² in series [3] ([M+NH4]+). For the molecule `CCCCC/C=C\C/C=C\C/C=C\CCCCCCCCC(=O)OC[C@@H](COC(=O)CCCCCCC/C=C\CCCCCCC)OC(=O)CCCCCCCCC/C=C\CCCCCCCC` [TG(59:5)], the “collision cross section (N2)” value in series [2] ([M+NH4]+) was 338.34 Å² and 341.2 Å².

Regarding `CC/C=C\C/C=C\C/C=C\C/C=C\C/C=C\C/C=C\CCC(=O)OC[C@@H](COC(=O)CCCCCCC/C=C\CCCCC)OC(=O)CCCCCCCCCCCCCCCCCCCCC` [TG(59:7)], the “collision cross section (N2)” value in series [2] ([M+NH4]+) turned out to be 337.86 Å².

The record behind these values is the C3SDB collision cross section collection.
